According to ChEMBL document CHEMBL3045167, “Synthesis and evaluation of antiinflammatory activity of substituted chalcone derivatives” (2010):
Activity calls are given as the source filed them. The rule behind the calls is not given here.

Experiments:
Type in all cases: functional
Mus musculus [1] = assay: Anti-inflammatory activity in Mus musculus Kunming (mouse) assessed as inhibition of xylene-induced ear edema at 200 mg/kg, po administered 2 hr prior to xylene challenge measured at 2 hr post xylene challenge relative to control
Mus musculus [2] = assay: Anti-inflammatory activity in Mus musculus Kunming (mouse) assessed as inhibition of xylene-induced ear edema at 100 mg/kg, po administered 2 hr prior to xylene challenge measured at 2 hr post xylene challenge relative to control
Mus musculus [3] = assay: Anti-inflammatory activity in Mus musculus Kunming (mouse) assessed as inhibition of xylene-induced ear edema at 50 mg/kg, po administered 2 hr prior to xylene challenge measured at 2 hr post xylene challenge relative to control
Mus musculus [4] = assay: Anti-inflammatory activity in Mus musculus Kunming (mouse) assessed as inhibition of xylene-induced ear edema at 200 mg/kg, po administered 4 hr prior to xylene challenge measured at 4 hr post xylene challenge relative to control
Mus musculus [5] = assay: Anti-inflammatory activity in Mus musculus Kunming (mouse) assessed as inhibition of xylene-induced ear edema at 200 mg/kg, po administered 0.5 hr prior to xylene challenge measured at 0.5 hr post xylene challenge relative to control
Mus musculus [6] = assay: Anti-inflammatory activity in Mus musculus Kunming (mouse) assessed as inhibition of xylene-induced ear edema at 200 mg/kg, po administered 24 hr prior to xylene challenge measured at 24 hr post xylene challenge relative to control
Mus musculus [7] = assay: Anti-inflammatory activity in Mus musculus Kunming (mouse) assessed as inhibition of xylene-induced ear edema at 200 mg/kg, po administered 1 hr prior to xylene challenge measured at 1 hr post xylene challenge relative to control
Mus musculus [8] = assay: Anti-inflammatory activity in Mus musculus Kunming (mouse) assessed as inhibition of xylene-induced ear edema at 200 mg/kg, po administered 3 hr prior to xylene challenge measured at 3 hr post xylene challenge relative to control

COc1cc(/C=C/C(=O)c2ccc(O)cc2O)ccc1O [HOMOBUTEIN]
inhibition in vivo at 200 mg/kg (Mus musculus [1]): 25.2%

O=C(/C=C/c1cccc([N+](=O)[O-])c1)c1ccc(O)cc1O
inhibition in vivo at 200 mg/kg (Mus musculus [1]): 30%

COc1cc(/C=C/C(=O)c2ccc(O)cc2)ccc1O
inhibition in vivo at 200 mg/kg (Mus musculus [1]): 7.83%

O=C(/C=C/c1ccc(Cl)cc1)c1ccc(O)cc1O
inhibition in vivo at 100 mg/kg (Mus musculus [2]): 49% | inhibition in vivo at 50 mg/kg (Mus musculus [3]): 18.6% | inhibition in vivo at 200 mg/kg (Mus musculus [4]): 32.3% | inhibition in vivo at 200 mg/kg (Mus musculus [1]): 68.2% | inhibition in vivo at 200 mg/kg (Mus musculus [5]): 30.2% | inhibition in vivo at 200 mg/kg (Mus musculus [6]): 21.5% | inhibition in vivo at 200 mg/kg (Mus musculus [7]): 32.5% | inhibition in vivo at 200 mg/kg (Mus musculus [8]): 33.6%

O=C(/C=C/c1ccc(O)cc1)c1ccc(O)cc1 [4,4'-DIHYDROXYCHALCONE]
inhibition in vivo at 200 mg/kg (Mus musculus [1]): 5.42%

CN(C)c1ccc(/C=C/C(=O)c2ccc(O)cc2O)cc1
inhibition in vivo at 100 mg/kg (Mus musculus [2]): 32.9% | inhibition in vivo at 50 mg/kg (Mus musculus [3]): 15.1% | inhibition in vivo at 200 mg/kg (Mus musculus [4]): 25.3% | inhibition in vivo at 200 mg/kg (Mus musculus [1]): 62.5% | inhibition in vivo at 200 mg/kg (Mus musculus [5]): 41.7% | inhibition in vivo at 200 mg/kg (Mus musculus [6]): 21.2% | inhibition in vivo at 200 mg/kg (Mus musculus [7]): 45.8% | inhibition in vivo at 200 mg/kg (Mus musculus [8]): 27.5%

COc1ccc(/C=C/C(=O)c2ccc(O)cc2O)cc1
inhibition in vivo at 200 mg/kg (Mus musculus [1]): 51.4%

O=C(/C=C/c1ccc2c(c1)OCO2)c1ccc(O)cc1O
inhibition in vivo at 200 mg/kg (Mus musculus [1]): 22%

CC(C)Cc1ccc(C(C)C(=O)O)cc1 (stereo unspecified) [IBUPROFEN]
inhibition in vivo at 100 mg/kg (Mus musculus [2]): 33% | inhibition in vivo at 50 mg/kg (Mus musculus [3]): 19.8% | inhibition in vivo at 200 mg/kg (Mus musculus [4]): 30.1% | inhibition in vivo at 200 mg/kg (Mus musculus [1]): 53.5% | inhibition in vivo at 200 mg/kg (Mus musculus [5]): 32.5% | inhibition in vivo at 200 mg/kg (Mus musculus [6]): 20.6% | inhibition in vivo at 200 mg/kg (Mus musculus [7]): 41.6% | inhibition in vivo at 200 mg/kg (Mus musculus [8]): 34.5%

O=C(/C=C/c1ccc(O)cc1)c1ccc(O)cc1O [ISOLIQUIRITIGENIN]
inhibition in vivo at 200 mg/kg (Mus musculus [1]): 14.9%

CN(C)c1ccc(/C=C/C(=O)c2ccc(O)cc2)cc1
inhibition in vivo at 200 mg/kg (Mus musculus [1]): 17.3%

O=C(/C=C/c1ccc(O)c(O)c1)c1ccc(O)cc1O [BUTEIN]
inhibition in vivo at 200 mg/kg (Mus musculus [1]): 14.4%

Cc1ccc(/C=C/C(=O)c2ccc(O)cc2O)cc1
inhibition (Mus musculus [1]): inactive

O=C(/C=C/c1ccc(Cl)cc1Cl)c1ccc(O)cc1O
inhibition in vivo at 200 mg/kg (Mus musculus [1]): 26%

O=C(/C=C/c1ccccc1[N+](=O)[O-])c1ccc(O)cc1O
inhibition in vivo at 200 mg/kg (Mus musculus [1]): 20.2%
